{
  "source": "patent US20210255193A1",
  "about": "“LYSINE REACTIVE PROBES AND USES THEREOF” (The Scripps Research Institute, priority 2017, published 2021)",
  "type_in_all_cases": "binding",
  "key": {"[1]": {"biological_target": "T1, IDH3B Isocitrate dehydrogenase (Homo sapiens, UniProt O43837)", "T1 construct": "isoTOP-ABPP experiments performed in cell lysates (in vitro); endogenous in cells; host or cells: MDA-MB-231 soluble lysate", "T1 sequence (O43837 35-385)": "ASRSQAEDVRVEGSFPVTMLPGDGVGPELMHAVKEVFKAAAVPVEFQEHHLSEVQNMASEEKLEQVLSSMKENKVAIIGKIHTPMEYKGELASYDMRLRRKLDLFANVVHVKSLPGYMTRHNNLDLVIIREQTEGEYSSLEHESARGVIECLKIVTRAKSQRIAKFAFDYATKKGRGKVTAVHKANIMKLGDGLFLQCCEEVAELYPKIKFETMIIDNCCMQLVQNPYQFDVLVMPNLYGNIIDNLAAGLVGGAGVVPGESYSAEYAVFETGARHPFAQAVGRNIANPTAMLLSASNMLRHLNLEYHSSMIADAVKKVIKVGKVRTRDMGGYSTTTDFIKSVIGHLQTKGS", "assay": "competitive isoTOP-ABPP", "in_short": "(§1)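 Competition format: fragment (50 μM activated ester, 100 μM guanidinylating agent) versus vehicle in lysate, then lysine probe STP-alkyne at 0.1 mM for 1 h. Quantitation by light/heavy TEV-tag MS1 peak areas, reported as R.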"}, "[2]": {"biological_target": "T2, EIF5A2 Eukaryotic translation initiation factor 5A-2 (Homo sapiens, UniProt Q9GZV4)", "T2 construct": "isoTOP-ABPP experiments performed in cell lysates (in vitro); endogenous in cells; host or cells: soluble proteome of human cancer cell lines (MDA-MB-231; Ramos and Jurkat also prepared)", "assay": "competitive isoTOP-ABPP", "details": "50 uM, in vitro", "in_short": "as §1"}, "[3]": {"biological_target": "T3, CCDC173 Coiled-coil domain-containing protein 173 (Homo sapiens, UniProt Q0VFZ6)", "T3 construct": "isoTOP-ABPP experiments performed in cell lysates (in vitro); endogenous in cells; host or cells: soluble proteome of human cancer cell lines (MDA-MB-231, Ramos, Jurkat)", "assay": "competitive isoTOP-ABPP", "details": "50 uM, in vitro", "in_short": "as §1"}, "[4]": {"biological_target": "T4, interaction between SIN3A and TGIF1 (Homo sapiens, UniProt Q96ST3, K155R)", "T4 construct": "flag-SIN3A or the indicated Flag-SIN3A mutants (a.a. 1-400), or Flag-GFP, were co-expressed in HEK 293T cells with Myc-TGIF1 or Myc-TGIF2; expressed in transfected cells; host or cells: HEK 293T", "T4 sequence (Q96ST3 1-400 K155R)": "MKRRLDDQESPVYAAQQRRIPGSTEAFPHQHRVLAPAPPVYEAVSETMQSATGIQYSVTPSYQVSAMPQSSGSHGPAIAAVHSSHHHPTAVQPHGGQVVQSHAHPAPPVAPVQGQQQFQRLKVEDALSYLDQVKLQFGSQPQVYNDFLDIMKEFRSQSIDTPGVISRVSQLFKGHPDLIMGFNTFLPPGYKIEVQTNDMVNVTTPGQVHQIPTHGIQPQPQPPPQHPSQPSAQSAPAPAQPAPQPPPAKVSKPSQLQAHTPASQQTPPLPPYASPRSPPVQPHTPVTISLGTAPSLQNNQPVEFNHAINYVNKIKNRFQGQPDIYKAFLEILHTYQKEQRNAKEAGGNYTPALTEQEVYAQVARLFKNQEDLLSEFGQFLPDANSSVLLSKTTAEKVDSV", "assay": "Co-IP experiment, anti-Myc western blot", "details": "K155R SIN3A", "procedure": "Co-IP experiment for the interaction between SIN3A and TGIF1 and TGIF2. 6 cm dishes of HEK 293T cells were transfected at 40% confluency with 600 ng of FLAG-GFP, FLAG-SIN3A WT, K155W, or K155R construct, and 600 ng of MYC-TGIF1 or MYC-TGIF2 as indicated. After 48 hours, cells were lysed and enriched as described above. Following elution in 40 μL urea, 15 μL of loading buffer was added to samples. 15 μL of both input (10%) and outputs were loaded onto an SDS-PAGE gel.\nWestern blotting. Proteins were resolved by SDS-PAGE (3 h, 300 V) and transferred to nitrocellulose membranes (90 min, 60 V), blocked with 5% milk in TBS-T and probed with the indicated antibodies in 5% milk in TBS-T. The primary antibodies and the dilutions used are as follows: anti-Flag (Sigma Aldrich, F1804, 1:3,000), anti-Myc (Cell Signalling, 2272S, 1:5,000), anti-actin (Cell Signaling, 3700, 1:3,000) and anti-GAPDH (Santa Cruz, 32233, 1:10,000). Blots were incubated with primary antibodies overnight at 4° C. with rocking and were then washed (3×5 min, TBS-T) and incubated with secondary antibodies (LICOR, IRDye 800CW or IRDye 680LT, 1:10,000) for 1 h at ambient temperature. Blots were further washed (3×5 min, TBST) and visualized on a LICOR Odyssey Scanner. Relative band intensities were quantified using ImageJ software."}, "CCNA2 Cyclin-A2": {"biological_target": "T5, CCNA2 Cyclin-A2 (Homo sapiens, UniProt P20248)", "T5 construct": "isoTOP-ABPP experiments performed in cell lysates (in vitro); endogenous in cells; host or cells: soluble proteome of human cancer cell lines (MDA-MB-231; Ramos and Jurkat also prepared)", "T5 sequence (P20248 whole entry)": "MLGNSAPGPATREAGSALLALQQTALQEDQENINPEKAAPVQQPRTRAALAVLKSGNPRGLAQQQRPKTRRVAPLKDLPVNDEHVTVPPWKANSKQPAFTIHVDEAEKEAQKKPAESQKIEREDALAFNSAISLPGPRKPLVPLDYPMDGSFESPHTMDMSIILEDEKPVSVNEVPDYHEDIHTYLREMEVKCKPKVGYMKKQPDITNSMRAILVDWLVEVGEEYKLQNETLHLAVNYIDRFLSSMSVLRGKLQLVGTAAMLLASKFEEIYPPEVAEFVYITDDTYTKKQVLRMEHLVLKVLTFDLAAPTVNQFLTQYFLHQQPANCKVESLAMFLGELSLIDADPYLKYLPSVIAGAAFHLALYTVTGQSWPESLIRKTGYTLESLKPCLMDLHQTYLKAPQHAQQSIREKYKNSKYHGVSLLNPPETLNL", "assay": "competitive isoTOP-ABPP", "details": "50 uM, in vitro", "in_short": "as §1"}, "[5]": {"biological_target": "T6, ACIN1 Apoptotic chromatin condensation inducer in the nucleus (Homo sapiens, UniProt Q9UKV3)", "T6 construct": "endogenous in cells; host or cells: MDA-MB-231 lysate", "T6 sequence (Q9UKV3 whole entry)": "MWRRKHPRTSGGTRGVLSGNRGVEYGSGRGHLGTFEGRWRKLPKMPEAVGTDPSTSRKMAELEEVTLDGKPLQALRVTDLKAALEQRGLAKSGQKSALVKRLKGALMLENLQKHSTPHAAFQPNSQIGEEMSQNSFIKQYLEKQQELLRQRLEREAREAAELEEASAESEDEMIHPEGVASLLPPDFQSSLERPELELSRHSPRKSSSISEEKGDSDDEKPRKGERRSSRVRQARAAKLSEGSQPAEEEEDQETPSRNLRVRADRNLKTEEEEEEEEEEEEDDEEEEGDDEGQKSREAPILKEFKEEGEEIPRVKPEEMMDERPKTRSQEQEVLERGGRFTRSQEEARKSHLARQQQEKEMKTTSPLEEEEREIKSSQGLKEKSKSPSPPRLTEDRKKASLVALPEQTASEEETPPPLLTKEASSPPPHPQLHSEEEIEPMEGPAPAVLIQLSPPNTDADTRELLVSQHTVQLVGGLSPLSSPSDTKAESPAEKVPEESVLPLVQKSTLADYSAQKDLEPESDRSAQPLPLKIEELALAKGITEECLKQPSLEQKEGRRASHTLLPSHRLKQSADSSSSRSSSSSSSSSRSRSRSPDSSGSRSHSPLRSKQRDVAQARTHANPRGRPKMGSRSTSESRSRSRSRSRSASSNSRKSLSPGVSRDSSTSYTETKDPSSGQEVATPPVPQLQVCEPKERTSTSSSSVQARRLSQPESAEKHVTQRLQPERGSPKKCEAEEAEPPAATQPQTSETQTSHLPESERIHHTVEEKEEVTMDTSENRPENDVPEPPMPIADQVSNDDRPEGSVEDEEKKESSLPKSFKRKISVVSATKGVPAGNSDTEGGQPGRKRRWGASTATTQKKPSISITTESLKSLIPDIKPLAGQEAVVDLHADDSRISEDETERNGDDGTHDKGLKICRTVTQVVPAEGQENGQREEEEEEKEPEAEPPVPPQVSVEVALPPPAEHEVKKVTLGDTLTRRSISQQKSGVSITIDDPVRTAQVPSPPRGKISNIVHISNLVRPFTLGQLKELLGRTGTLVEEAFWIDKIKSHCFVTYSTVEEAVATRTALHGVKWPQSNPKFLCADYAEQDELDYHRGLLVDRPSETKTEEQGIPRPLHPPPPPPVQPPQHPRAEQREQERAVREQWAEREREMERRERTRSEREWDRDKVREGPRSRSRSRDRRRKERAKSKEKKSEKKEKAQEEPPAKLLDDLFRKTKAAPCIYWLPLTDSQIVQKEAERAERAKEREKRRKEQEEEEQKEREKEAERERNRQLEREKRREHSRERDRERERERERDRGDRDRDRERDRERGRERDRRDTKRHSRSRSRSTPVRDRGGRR", "assay": "competitive isoTOP-ABPP", "details": "50 uM_231_sol_in vitro", "in_short": "as §1"}},
  "data": [
    {"smiles": "O=C(Oc1c(F)c(F)c(F)c(F)c1F)C(c1ccccc1)c1ccccc1", "note": "[fragment 20, Pentafluorophenyl 2,2-diphenylacetate]", "values": [
      {"measurement": "R value (DMSO/fragment) for probe 1 labeling", "setting": "[1]; O43837_K207, 50 uM, 231 sol, in vitro", "value": 6.5}
    ]},
    {"smiles": "O=C(Oc1c(F)c(F)c(F)c(F)c1F)c1cc(C(F)(F)F)cc(C(F)(F)F)c1", "note": "[fragment 21, Pentafluorophenyl 3,5-bis(trifluoromethyl)benzoate]", "values": [
      {"measurement": "R value (DMSO/fragment) for probe 1 labeling", "setting": "[2]; Q9GZV4_K47, 231 sol", "value": 5.0},
      {"measurement": "R value (DMSO/fragment) for probe 1 labeling", "setting": "[3]; Q0VFZ6_K312, 231 sol", "value": 20.0},
      {"measurement": "effect on SIN3A-TGIF1 interaction, K155R mutant", "setting": "[4]", "value": "conferred resistance to the effects of 21"}
    ]},
    {"smiles": "COc1cc(CCC(=O)Oc2ccc([N+](=O)[O-])cc2[N+](=O)[O-])cc(OC)c1OC", "note": "[fragment 33, 2,4-Dinitrophenyl 3-(3,4,5-trimethoxyphenyl)propanoate]", "values": [
      {"measurement": "isoTOP-ABPP reactivity ratio at lysine P20248_K54", "setting": "CCNA2 Cyclin-A2; 231 sol", "value": 5.4}
    ]},
    {"smiles": "O=C(Oc1ccc([N+](=O)[O-])cc1[N+](=O)[O-])c1ccc2ccccc2n1", "note": "[fragment 35, 2,4-Dinitrophenyl quinoline-2-carboxylate]", "values": [
      {"measurement": "isoTOP-ABPP ratio (R) at liganded lysine Q0VFZ6_K312", "setting": "[3]; sol, 231", "value": 14.4}
    ]},
    {"smiles": "O=C(Oc1ccc([N+](=O)[O-])cc1[N+](=O)[O-])c1ccc(-c2ccccc2)cc1", "note": "[fragment 37, 2,4-Dinitrophenyl [1,1′-biphenyl]-4-carboxylate]", "values": [
      {"measurement": "isoTOP-ABPP ratio (R) at liganded lysine P20248_K54", "setting": "CCNA2 Cyclin-A2; sol, 231", "value": 0.5}
    ]},
    {"smiles": "O=C(CC12CC3CC(CC(C3)C1)C2)Oc1ccc([N+](=O)[O-])cc1[N+](=O)[O-]", "note": "[fragment 38, 2,4-Dinitrophenyl 2-(adamantan-1-yl)acetate]", "values": [
      {"measurement": "isoTOP-ABPP ratio (R) at liganded lysine Q9GZV4_K47", "setting": "[2]; sol, 231", "value": 1.8}
    ]},
    {"smiles": "N#Cc1ccc(C(=O)Oc2ccc([N+](=O)[O-])cc2[N+](=O)[O-])cc1", "note": "[fragment 44, 2,4-Dinitrophenyl 4-cyanobenzoate]", "values": [
      {"measurement": "isoTOP-ABPP ratio, lysine Q9UKV3_K103", "setting": "[5]", "value": 1.0}
    ]},
    {"smiles": "O=C(ON1C(=O)CCC1=O)c1cc(C(F)(F)F)cc(C(F)(F)F)c1", "note": "[fragment 46, 3,5-Bis(trifluoromethyl)benzoic acid NHS ester]", "values": [
      {"measurement": "isoTOP-ABPP ratio, lysine Q9UKV3_K103", "setting": "[5]", "value": 16.6}
    ]},
    {"smiles": "CC(C)(C)OC(=O)N=C(NC(=O)OC(C)(C)C)n1cccn1", "note": "[fragment 50, reference compound]", "values": [
      {"measurement": "isoTOP-ABPP ratio, lysine O43837_K207", "setting": "[1]; 100 uM_231_sol_in vitro", "value": 3.1}
    ]}
  ]
}
